{"source": "patent US6897212B2", "about": "“Treatment of oppositional defiant disorder and conduct disorder with 5-aminoalkyl-4,5,6,7-tetrahydro-4-oxyindolones” (Afecta Pharmaceuticals, priority 2002, dated 2005)", "key": {"patients with ODD": {"system": "patients with ODD", "experiment": "treatment of patients with oppositional defiant disorder and conduct disorder", "assay_type": "in vivo, human", "description": "The side effect is totally unacceptable to teenagers.\nCase histories are set out in the following examples, which are offered by way of illustration and are not intended to limit the invention in any manner."}, "[1]": {"experiment": "weight gain in treated patients"}, "[2]": {"conditions": "cited from earlier work"}, "Serotonin 2A receptor": {"target": "T1, Serotonin 2A receptor (Homo sapiens, UniProt P28223)", "T1 construct": "membrane homogenates", "T1 sequence (P28223 whole entry)": "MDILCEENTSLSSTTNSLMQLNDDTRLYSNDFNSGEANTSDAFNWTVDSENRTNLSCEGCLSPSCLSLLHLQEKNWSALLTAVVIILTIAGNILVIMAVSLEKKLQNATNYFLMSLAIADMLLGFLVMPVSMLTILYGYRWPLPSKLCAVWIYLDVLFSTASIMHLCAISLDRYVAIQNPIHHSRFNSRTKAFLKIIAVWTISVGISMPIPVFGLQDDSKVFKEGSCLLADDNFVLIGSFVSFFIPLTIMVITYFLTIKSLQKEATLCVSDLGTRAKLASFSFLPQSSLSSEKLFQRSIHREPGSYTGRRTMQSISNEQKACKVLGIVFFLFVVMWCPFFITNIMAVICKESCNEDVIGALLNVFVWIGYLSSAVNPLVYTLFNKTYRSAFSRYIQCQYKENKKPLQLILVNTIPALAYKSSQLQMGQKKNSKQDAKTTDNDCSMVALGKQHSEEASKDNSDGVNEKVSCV", "experiment": "binding affinity to Serotonin 2A receptor in cell membrane homogenates", "conditions": "for Ki: cell membrane homogenates, read-out: pKi 5-HT2A (converted); for pKi ratio 5-HT2A/D2: ratio of Serotonin 2A binding to Dopamine 2 binding", "description": "The formulae of the compounds are [drawing 6]\nHere, the pKi value is a measure for the binding affinity of the test compounds to the receptors present in cell membrane homogenates. D1 refers to the Dopamine 1 receptor, D2 refers to the Dopamine 2 receptor, and 5-HT2A refers to the Serotonin 2A receptor, while the pKi ratio presents the ratio of Serotonin 2A binding to Dopamine 2 binding."}, "5-HT2A": {"target": "5-HT2A (Homo sapiens, UniProt P28223)", "sequence (P28223 whole entry, species assumed)": "as the sequence (P28223 whole entry) above", "experiment": "in vitro activity (pA2) on cells expressing serotonine receptors"}, "Dopamine 2 receptor": {"target": "Dopamine 2 receptor (Homo sapiens, UniProt P14416)", "sequence (P14416 whole entry)": "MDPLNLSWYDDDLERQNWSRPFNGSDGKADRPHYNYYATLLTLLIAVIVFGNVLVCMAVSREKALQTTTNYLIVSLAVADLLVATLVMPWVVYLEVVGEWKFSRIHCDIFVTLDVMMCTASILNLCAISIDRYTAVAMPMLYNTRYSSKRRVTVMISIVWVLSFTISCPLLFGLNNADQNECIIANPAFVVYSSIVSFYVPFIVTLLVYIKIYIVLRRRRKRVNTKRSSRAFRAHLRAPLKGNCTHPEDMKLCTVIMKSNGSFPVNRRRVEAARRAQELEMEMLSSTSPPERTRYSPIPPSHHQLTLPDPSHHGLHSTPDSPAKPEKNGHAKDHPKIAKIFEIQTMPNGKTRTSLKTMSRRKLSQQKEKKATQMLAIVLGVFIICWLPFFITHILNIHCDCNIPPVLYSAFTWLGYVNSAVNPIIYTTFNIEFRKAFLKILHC", "experiment": "binding affinity to Dopamine 2 receptor in cell membrane homogenates"}, "[3]": {"system": "patients with refractory depression", "conditions": "19 patients with refractory depression; molindone 10-30 mg/day; cited from earlier work"}, "[4]": {"system": "children with undersocialized conduct disorder, aggressive type", "conditions": "cited from earlier work; for behavior ratings: double-blind study, 31 children, ages 6-11 years (Greenhill et al., 1985)"}, "Dopamine 1 receptor": {"target": "Dopamine 1 receptor (Homo sapiens, UniProt P21728)", "sequence (P21728 whole entry)": "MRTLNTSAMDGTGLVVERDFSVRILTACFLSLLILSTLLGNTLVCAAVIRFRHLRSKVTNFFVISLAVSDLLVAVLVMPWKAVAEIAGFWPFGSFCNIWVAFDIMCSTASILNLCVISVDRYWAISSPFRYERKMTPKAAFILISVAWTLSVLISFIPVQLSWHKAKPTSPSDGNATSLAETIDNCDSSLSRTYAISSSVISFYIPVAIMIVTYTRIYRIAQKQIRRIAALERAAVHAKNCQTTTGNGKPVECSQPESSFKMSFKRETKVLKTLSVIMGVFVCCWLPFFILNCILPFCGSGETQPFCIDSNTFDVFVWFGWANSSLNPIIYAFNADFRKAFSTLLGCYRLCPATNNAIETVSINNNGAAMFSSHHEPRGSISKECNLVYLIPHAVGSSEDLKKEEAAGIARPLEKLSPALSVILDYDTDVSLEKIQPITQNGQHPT", "experiment": "binding affinity to Dopamine 1 receptor in cell membrane homogenates"}, "[5]": {"conditions": "cited from earlier work", "remark": "listed apart in the source"}, "[6]": {"conditions": "human, in vivo"}, "monoamine oxidase": {"system": "monoamine oxidase", "conditions": "in vitro and in vivo; cited from earlier work"}}, "note": "Where two headings read alike, the source gives them in different places."}
{"smiles": "Cc1nc2n(c(=O)c1CCN1CCC(c3noc4cc(F)ccc34)CC1)CCCC2", "note": "[risperidone]", "values": [{"measurement": "effect on oppositional behavior", "setting": "patients with ODD; Example 3, patient one, used instead of molindone", "value": "significant improvement in the oppositional behavior"}, {"measurement": "treatment of ODD", "setting": "patients with ODD; unpublished observations", "value": "capable of effectively treating ODD"}, {"measurement": "weight gain", "setting": "[1]; Example 3, patient one", "value": "significant weight gain"}, {"measurement": "weight gain", "setting": "[1]; patients, especially children", "value": "unacceptable level of weight gain, sometimes approaching a pound a day"}]}
{"smiles": "O=C(CCCN1CCC(O)(c2ccc(Cl)cc2)CC1)c1ccc(F)cc1", "note": "[haloperidol]", "values": [{"measurement": "fraction in plasma not bound to protein", "setting": "[2]", "value": 9, "unit": "%"}]}
{"smiles": "CCc1c(C)[nH]c2c1C(=O)C(CCN1CCN(c3ccccc3OC)CC1)CC2", "note": "(stereo not drawn) [Compound 2]", "values": [{"measurement": "Ki", "setting": "Serotonin 2A receptor", "value": 91.2, "unit": "nM"}, {"measurement": "pKi ratio 5-HT2A/D2", "setting": "Serotonin 2A receptor", "value": 0.97}, {"measurement": "Kb", "setting": "5-HT2A", "value": 31.6, "unit": "nM"}, {"measurement": "Ki", "setting": "Dopamine 2 receptor", "value": 28.2, "unit": "nM"}]}
{"smiles": "N[C@@H]1C[C@H]1c1ccccc1", "note": "(racemic) [tranylcypromine]", "values": [{"measurement": "patients showing definite improvement", "setting": "[3]", "value": "two"}]}
{"smiles": "Cc1cc2c(s1)Nc1ccccc1N=C2N1CCN(C)CC1", "note": "[olanzapine]", "values": [{"measurement": "weight gain", "setting": "[1]; Example 3, patient one", "value": "significant weight gain"}, {"measurement": "weight gain", "setting": "[1]; patients, especially children", "value": "unacceptable level of weight gain, sometimes approaching a pound a day"}]}
{"smiles": "CSc1ccc2c(c1)N(CCC1CCCCN1C)c1ccccc1S2", "note": "(stereo not drawn) [thioridazine]", "values": [{"measurement": "behavior ratings", "setting": "[4]", "value": "improvement in behavior ratings"}]}
{"smiles": "CCc1c(C)[nH]c2c1C(=O)C(CCN1CCOCC1)CC2", "note": "(stereo not drawn) [Compound 1]", "values": [{"measurement": "Ki", "setting": "Serotonin 2A receptor", "value": 912, "unit": "nM"}, {"measurement": "pKi ratio 5-HT2A/D2", "setting": "Serotonin 2A receptor", "value": 0.97}, {"measurement": "Kb", "setting": "5-HT2A", "value": 105, "unit": "nM"}, {"measurement": "Ki", "setting": "Dopamine 2 receptor", "value": 589, "unit": "nM"}, {"measurement": "Ki", "setting": "Dopamine 1 receptor", "value": 2140, "unit": "nM"}]}
{"smiles": "CN(C)CCCN1c2ccccc2Sc2ccc(Cl)cc21", "note": "[chlorpromazine]", "values": [{"measurement": "fraction in plasma not bound to protein", "setting": "[2]", "value": 0.13, "unit": "%"}]}
{"smiles": "CCc1c(C)[nH]c2c1C(=O)C(CN1CCOCC1)CC2", "note": "(stereo not drawn) [Molindone, 3-ethyl-6,7-dihydro-2-methyl-5-(morpholinomethyl)indol-4-(5H)-one]", "values": [{"measurement": "prolongation of half-life", "setting": "[5]; concomitant lithium therapy", "value": "at least fourfold"}, {"measurement": "elimination half-life", "setting": "[5]; humans", "value": "approximately 2 hours"}, {"measurement": "weight gain", "setting": "[6]", "value": "rarely, if ever, causes weight gain"}, {"measurement": "behavior ratings", "setting": "[4]", "value": "improvement in behavior ratings"}, {"measurement": "aggressive behavior and Nurses' Global Assessment Scale", "setting": "[4]; open trial, six patients, ages 6-11 years (Greenhill et al., 1981)", "value": "some improvement"}, {"measurement": "effect on tantrums, hitting, rages and swearing", "setting": "patients with ODD; Example 1, patient three, ¼ of a 5 mg tablet every 4 hours", "value": "immediate cessation of the tantrums, hitting and rages and less swearing"}, {"measurement": "effect of raised dose", "setting": "patients with ODD; Example 1, patient three, ½ of a 5 mg tablet every 4 hours after three months", "value": "more effective"}, {"measurement": "effect on tantrums and aggressive behaviors", "setting": "patients with ODD; Example 2, patient two, 2.5 mg every 4 hours", "value": "the tantrums and aggressive behaviors disappeared"}, {"measurement": "persistence of effect", "setting": "patients with ODD; Example 2, patient two, after 6 months of use", "value": "still effective"}, {"measurement": "effect on behavior after molindone was again initiated", "setting": "patients with ODD; Example 3, patient one", "value": "immediate and dramatic improvement in the behavior"}, {"measurement": "effect on oppositional behavior", "setting": "patients with ODD; Example 3, patient one, molindone 10 mg bid", "value": "dramatic decrease in oppositional behavior"}, {"measurement": "treatment of ODD", "setting": "patients with ODD; more than 50 patients with ODD, usual dose 1.25 to 10 mg every 4 hours", "value": "successfully treated"}, {"measurement": "patients showing definite improvement", "setting": "[3]", "value": "Five of the 10 patients"}, {"measurement": "inhibition of monoamine oxidase", "setting": "monoamine oxidase", "value": "inhibits the enzyme monoamine oxidase in vitro and in vivo"}]}
